From US20250214973A1, “1,4,5-TRISUBSTITUTED-1,2,3-TRIAZOLES AND USES THEREOF” (UNIVERSITY OF PUERTO RICO, priority 2022, published 2025)

How the values were obtained:
MDA-MB-231 [1] = test: Initial screening, inhibition of migration (wound gap); format: cell-based; details: Homo sapiens; for inhibition at 0.5 µM: read-out: Inh. of migration (converted)
Description: In addition, the inhibition of migration of MDA-MB-231 was determined via the following procedure:
Prior to assays, cells were grown until 80-90% confluence was observed. We used a 75 cm^2 flask for 2.6×10^5 cells/mL in 10 mL and for a 25 cm^2 flask 1.44×10^5 cells/mL in 5 mL. The cells were washed with PBS to remove all traces of FBS. We added 2 mL for a 25 cm^2 flasks or 4 mL for a 75 cm^2 flasks trypsin, and incubated 5-10 min at 37° C. At the end of the incubation time, cells were re-suspended and counted with hemocytometer using 1:2 dilutions with Trypan blue. Subsequently, cell viability was calculated. In a 12 well tissue culture plate, we used the plastic pattern to draw a fine space with a fine marker on the bottom of the plate. Cells were seeded at 1.5-2.2×10^5 cells/mL in 1 mL and incubated for 24 h. Cells were then rinsed with PBS and incubated in starving media (0.5% FBS) overnight. All controls and drugs were tested in triplicate. The negative control for each drug was prepared according to the drug's DMSO concentration. […] The wound was made using a sterile pipette tip of 200 μL. Cells were then rinsed very gently with media without FBS and media with negative controls was added. After a 24 h incubation, the gap distance was evaluated using the software Lumera Infinity Analyze 6.4.0. Pictures were taken at 0, 8, 12 and 24 h using a 10× objective in an Inverted Laboratory Microscope Leica DM IL LED, and an Infinity1-3 3.1 Megapixel USB 2.0 camera CMOS. The percentage of migration was calculated using the following formula: […]

MCF-7 = test: Initial screening, SRB assay GI50; format: cell-based; details: Homo sapiens, MCF7, 48 hrs
Description: (§1) For initial screening, the GIso of compounds 4a-4h in the cell lines MDA-MB-231, MDA-MB-435 and MCF-7 was determined via the SRB-assay for 48 hrs as follows:
(§2) A stock solution of compounds was prepared at 50 mM in 100% DMSO. For cells preparation, a flask of 75 cm^2 or 25 cm^2 were used for 2.6×10^5 cells/mL or 1.44×10^5 cells/mL, respectively, with an 80-90% of confluence. Cells were washed with PBS and trypsinized. The concentration of cells was determined using a 1:2 dilutions with Trypan Blue and a hemocytometer. After cell count, the concentration was adjusted to have a 7.0-10.0×10^4 cells/mL. Approximately 100 μL of cells suspension, compounds, control positive and control negative were added in triplicates to a 96 well plate. Positive control used was doxorubicin, and the negative control was DMSO 0.1%. All compounds (4a-h) at 50, 25, 12.5, 6.3, and 1.6 μM were incubated with cells at 37° C. for 48 hrs. For fixation, cold TCA 50% was used and incubated at 4° C. for 1 h. Wells were washed and dried prior to tincture with 100 μL of SRB 0.4%. To remove excess of SRB, acetic acid was used. For analysis, TRIS-BASE Solution (pH=10.5) was used and shaken prior to reading using an ELISA reader at 540 nm and the software SoftMax Pro 4.8. For each compound, 50% growth inhibition (GI50) was calculated from Sigmoidal dose-response curves (variable-slope) that were generated with data obtained from experiments carried out in triplicates (GI50 values were generated with GraphPad Prism V. 6.02, GraphPad Software, Inc.).

MDA-MB-231 [2] = test: Initial screening, SRB assay GI50; format: cell-based; details: Homo sapiens, 48 hrs
Description: as §1, §2

MDA-MB-435 [3] = test: Initial screening, SRB assay GI50; format: cell-based; details: Homo sapiens, 48 hrs, read-out: MDA-MB435 GI50
Description: as §1, §2

MDA-MB-435 [4] = test: Cell viability assay (MTT); format: cell-based, human; details: for GI50: MTT, 72 hrs, read-out: GI50 MDA-MB-435; for GI50 / effect on viability of MDA-MB-435: 0-1000 nM; for effect on viability of MDA-MB-435: 72 h
Description: Cells plated at equal density were treated at 500 nM of compounds. After 72 hours, cell viability was measured by a MTT assay. n=3; * p<0.05, ** p<0.01, *** p<0.001.
(§3) Cells plated at equal density were treated at 250 nM of 4c at 250 nM.
(§4) Data from 3 biologic replicates each with 2 technical replicates. Four parameter dose-response curves generated using GraphPad Prism are shown.
[…]. GI50 was calculated using Graph pad Prism.
(§5) […] Using CellTiter 96 Non-Radioactive Cell Proliferation Assay (Promega, Corp.) according to manufactures' instructions, formazan was used as an indicator of viable cells at an absorbance 570 nm in a Tecan Microplate Reader M100. Data was calculated as fold change from vehicle and fitted using the 4′parameter logic nonlinear regression model in GraphPad Prism software. (n=3 biologic replicates: with 3 technical replicates each).
A range of compounds were tested by MTT assays for cell viability in MDA-MB-231 triple negative breast cancer (TNBC) cells and MDA-MB-435 HER2++ cancer cells. […].

Rac = Rac activation pulldown (GST-CRIB of PAK) in MDA-MB-435 cells; format: cell-based, human; details: 24 hours
Description: (§6) Cells were lysed and equal amounts of proteins were subjected to pull-down assays using a GST-fusion protein of the Cdc42-rac interactive binding (CRIB) domain of P21-activated kinase (PAK). The pulldowns of Rac.GTP and whole cell lysates were western blotted with a pan Rac1/2/3 antibody.
as §6

MDA-MB-231 [5] = test: Cell viability assay (MTT); format: cell-based; details: Homo sapiens; for inhibition at […]: MDA-MB-231, 250 nM for 48 hours (footnote a; title says 500 nM), read-out: % growth inhibition MDA-MB-231
Description: Cells plated at equal density were treated at 500 nM of compounds. […]
as §3, §4
Cell viability relative to vehicle (100%) is shown.
as §5
A range of compounds were tested by MTT assays for cell viability in MDA-MB-231 triple negative breast cancer (TNBC) cells and MDA-MB-435 HER2++ cancer cells.

Vav2 binding to Rac1 = target: T1, Vav2 binding to Rac1 (Homo sapiens, UniProt P63000, G15A); test: Rac1 GEF assay, Rac1(G15A) pulldown; details: 8 μM, MDA-MB-231 lysates
T1 construct: purchased Cell Biolabs, San Diego; CA; host or cells: Vav2 from MDA-MB-231 cell lysate
Description: GST-Rac1 (G15A) beads were pre-incubated with vehicle (0.1% DMSO), or 8 μM EHop-016, or 250 nM Compound 4c for 1 hour followed by incubation with MDA-MB-231 cell lysates (equal total protein). Representative Western blot for Rac1(G15A) or pulldowns immunostained for Vav2 is shown (n=3).
MDA-MB-231 cells in culture medium were lysed in 1% Triton X-100, 20 mM HEPES, pH 7.4, 150 mM NaCl, 5 mm MgCl2, and protease inhibitors and processed. Equal amounts of protein from cleared lysates were incubated for 1 h at 4° C. with glutathione-agarose beads conjugated to GST-Rac1(G15A) nucleotide-free mutant (Cell Biolabs, San Diego. CA) that were preincubated (for 1 h) with vehicle or 8 μm EHop-016 or 0.25 μM Compound 4c. The beads were washed, and the lysates and pull-downs were immunoblotted for Tiam-1, Trio, Ect2, p-REX, or Vav2.

Row | Structure (SMILES) | GI50 (MCF-7) [µM] | GI50 (MDA-MB-231 [2]) [µM] | GI50 (MDA-MB-435 [3]) [µM] | inhibition at 0.5 µM (MDA-MB-231 [1]) [%] | inhibition at […] (MDA-MB-231 [5]) [%] | GI50 (MDA-MB-435 [4]; Homo sapiens, MDA-MB-435) [µM] | effect on viability of MDA-MB-435 (MDA-MB-435 [4]) | also measured
1 | CCn1c2ccccc2c2cc(-n3nnc(C(O)c4ccco4)c3-c3ccccc3)ccc21 (centres unmarked) [Compound 4a, (1-(9-ethyl-9H-carbazol-3-yl)-5-phenyl-1H-1,2,3-triazol-4-yl) (furan-2-yl) methanol] | 20.6 | 17.5 | 0.36 | – | – | – | – | inhibition at 6.6 µM (MDA-MB-231 [1]; at 6.6 μM, read-out: Inh. of migration): 55 ± 13.6%; cytotoxicity at 0.5 µM (MDA-MB-435 [4]; Homo sapiens, MDA-MB-435, 500 nM, 72 hours, read-out: decrease in cell viability, MDA-MB-435): ~80%
2 | CCn1c2ccccc2c2cc(-n3nnc(C(O)c4cccs4)c3-c3ccccc3)ccc21 (centres unmarked) [Compound 4d, (1-(9-ethyl-9H-carbazol-3-yl)-5-phenyl-1H-1,2,3-triazol-4-yl) (thiophen-2-yl) methanol] | 12 | 20.4 | 19.6 | 8.7 | – | – | – | inhibition at 4.1 µM (MDA-MB-231 [1]; at 4.1 μM, read-out: Inh. of migration): 57.5 ± 10.6%
3 | CCn1c2ccccc2c2cc(-n3nnc(C(O)c4ccc(OC)cc4)c3-c3ccccc3)ccc21 (centres unmarked) [Compound 4e, (1-(9-ethyl-9H-carbazol-3-yl)-5-phenyl-1H-1,2,3-triazol-4-yl) (4-methoxyphenyl) methanol] | 10.6 | 26.2 | 32.9 | 36.1 | – | – | – | inhibition at 5.3 µM (MDA-MB-231 [1]; at 5.3 μM, read-out: Inh. of migration): 57 ± 12.3%
4 | CCn1c2ccccc2c2cc(-n3nnc(C(O)c4ccc([N+](=O)[O-])cc4)c3-c3ccccc3)ccc21 (centres unmarked) [Compound 4f, (1-(9-ethyl-9H-carbazol-3-yl)-5-phenyl-1H-1,2,3-triazol-4-yl) (4-nitrophenyl) methanol] | 9.7 | 11.2 | 7.5 | 22.1 | – | – | – | inhibition at 2.2 µM (MDA-MB-231 [1]; at 2.2 μM, read-out: Inh. of migration): 61.1 ± 6.12%
5 | CCn1c2ccccc2c2cc(-n3nnc(C(O)c4ccc(C)cc4)c3-c3ccccc3)ccc21 (centres unmarked) [Compound 4g, (1-(9-ethyl-9H-carbazol-3-yl)-5-phenyl-1H-1,2,3-triazol-4-yl) (p-tolyl) methanol] | 13.5 | 7.9 | 2.2 | – | – | – | – | inhibition at 1.6 µM (MDA-MB-231 [1]; at 1.6 μM, read-out: Inh. of migration): 15.1 ± 10.7%
6 | CCn1c2ccccc2c2cc(-n3nnc(C(O)c4ccccc4)c3-c3ccccc3)ccc21 (centres unmarked) [Compound 4h, (1-(9-ethyl-9H-carbazol-3-yl)-5-phenyl-1H-1,2,3-triazol-4-yl) (phenyl) methanol] | 9.6 | 24.3 | 22.6 | 11.1 | – | – | – | inhibition at 4.9 µM (MDA-MB-231 [1]; at 4.9 μM, read-out: Inh. of migration): 65.4 ± 11.9%
7 | CCn1c2ccccc2c2cc(-n3nnc(C#N)c3-c3ccccc3)ccc21 [Compound 5, 1-(9-ethyl-9H-carbazol-3-yl)-5-phenyl-1H-1,2,3-triazole-4-carbonitrile] | – | – | – | – | 46 | 0.045 | – | % Rac inhibition (Rac; 10 nM): ~30%; % Rac inhibition (Rac; 50 nM): > 90%; % Rac inhibition (Rac; 100 nM): > 90%; cytotoxicity at […] (MDA-MB-231 [5]; 250 nM, 48h, text prints MDA-MB-435 TNBC, read-out: inhibition of cell viability): 50%; cytotoxicity relative to MBQ-167 (MDA-MB-435 [4]; MDA-MB-435, 72 h GI50): ~3 ×
8 | CCOC(=O)c1nnn(-c2ccc3c(c2)c2ccccc2n3CC)c1-c1ccccc1 [Compound 6, Ethyl 1-(9-ethyl-9H-carbazol-3-yl)-5-phenyl-1H-1,2,3-triazole-4-carboxylate] | – | – | – | – | 32 | ~5 | reduced the viability | –
9 | CCn1c2ccccc2c2cc(-n3nnc(C(=O)O)c3-c3ccccc3)ccc21 [Compound 7, 1-(9-Ethyl-9H-carbazol-3-yl)-5-phenyl-1H-1,2,3-triazole-4-carboxylic acid] | – | – | – | – | 29 | – | reduced the viability | –
10 | CCn1c2ccccc2c2cc(-n3nnc(C(=O)N4CCOCC4)c3-c3ccccc3)ccc21 [Compound 8, (1-(9-ethyl-9H-carbazol-3-yl)-5-phenyl-1H-1,2,3-triazol-4-yl) (morpholino) methanone] | – | – | – | – | -11 | ~1 | did not have an effect | % Rac inhibition (Rac; 250 nM): 250 nM : <20%
11 | CCn1c2ccccc2c2cc(-n3nnc(C(=O)NCCCN4CCOCC4)c3-c3ccccc3)ccc21 [Compound 9, 1-(9-ethyl-9H-carbazol-3-yl)-N-(3-morpholinopropyl)-5-phenyl-1H-1,2,3-triazole-4-carboxamide] | – | – | – | – | 13 | > 10 | reduced the viability | % Rac inhibition (Rac; 250 nM): 250 nM : <20%
12 | CCn1c2ccccc2c2cc(-n3nnc(C(=O)c4cccs4)c3-c3ccccc3)ccc21 [Compound 10, (1-(9-Ethyl-9H-carbazol-3-yl)-5-phenyl-1H-[1,2,3]triazol-4-yl)-thiophen-2-yl-methanone] | 0.19 | 0.915 | 23.3 | – | – | – | – | –
13 | CCn1c2ccccc2c2cc(Nc3ccnc(NCCCN4CCOCC4)n3)ccc21 [EHop-016, reference compound] | – | – | – | – | – | – | – | inhibition of Vav2 binding to Rac1 (Vav2 binding to Rac1): ~80%
